Results reported in patent US11795213B2, “Methods and compositions for treating celiac disease” (Beth Israel Deaconess Medical Center, Inc., priority 2010, dated 2023).

Columns and labels:
celiac biopsies = settings: shown previously; cited from earlier work
[1] = system: intestinal epithelial cell lines (HT29, Caco-2 and T84); experiment: Cytokine secretion by intestinal epithelial cell lines; format: cell-based; settings: even at 40 μg/ml
Procedure: (§1) For stimulation cells were seeded on polystyrene wells at a density of 1×10^6/ml. Unless otherwise stated supernatants were harvested after a 16 hr incubation with various stimulants.
(§2) The concentration of IL-8, TNF-α, MCP-1, RANTES, and mouse IL-8 (KC) in cell culture supernatants and serum samples was determined using validated ELISAs (IL-8, hTNFα: BD Pharmingen, San Jose, CA; MCP-1, hRANTES, mRANTES, KC: R&D Systems, (Minneapolis, MN; mTNFα: eBioscience, San Diego, CA), according to the manufacturer's protocols.

THP-1 = experiment: Cytokine secretion by stimulated THP-1 monocytic cells (ELISA); format: cell-based, human
Source text: (§3) To examine how far gliadin elicits innate immune responses, we stimulated the human monocytic cell lines THP-1 and U937 with different concentrations of gliadin digested with pepsin and trypsin (PT gliadin) and measured secretion of proinflammatory cytokines in the supernatant. A digest of zein, partly homolgous storage proteins from corn that lack toxicity for patients with celiac disease, served as negative control. […] To rule out LPS contamination as trigger of innate responses, gliadin, LPS, and TNF-α were digested with proteinase K, completely digesting and abrogating all peptide-related activities.
(§4) THP-1, U937, HEK-293 (all from ATCC, Manassas, VA), and HEK-293 cells stably transfected with the TLR4-CD14-MD2 complex (Invivogen) were cultured in complete RPM or DMEM (Cellgro, Manassas, VA) supplemented with penicillin/streptomycin and 10% fetal calf serum at 37° C. in a 5% CO2 atmosphere.
as §1
After proteinase K inactivation by boiling for 5 minute the digests were used for cell stimulation.
as §2

U937 = experiment: Cytokine secretion by stimulated U937 monocytic cells (ELISA); format: cell-based, human; settings: even at 40 μg/ml
Source text: as §3, §4, §1, §2

[2] = target: T1, human TLR4-CD14-MD2-complex (Homo sapiens, UniProt O00206+Q9Y6Y9); experiment: IL-8 secretion by HEK-293 cells transfected with TLR4-CD14-MD2 complex; format: cell-based; settings: for IL-8 secretion: TLR4-CD14-MD2 transfected HEK-293; for stimulatory activity after additional purification using an endotoxin depletion column: 5 μg/ml, IL-8 after 24 h, FIG. 9C
T1 construct: host or cells: HEK-293 (stably transfected)
T1 sequence (O00206 24-839): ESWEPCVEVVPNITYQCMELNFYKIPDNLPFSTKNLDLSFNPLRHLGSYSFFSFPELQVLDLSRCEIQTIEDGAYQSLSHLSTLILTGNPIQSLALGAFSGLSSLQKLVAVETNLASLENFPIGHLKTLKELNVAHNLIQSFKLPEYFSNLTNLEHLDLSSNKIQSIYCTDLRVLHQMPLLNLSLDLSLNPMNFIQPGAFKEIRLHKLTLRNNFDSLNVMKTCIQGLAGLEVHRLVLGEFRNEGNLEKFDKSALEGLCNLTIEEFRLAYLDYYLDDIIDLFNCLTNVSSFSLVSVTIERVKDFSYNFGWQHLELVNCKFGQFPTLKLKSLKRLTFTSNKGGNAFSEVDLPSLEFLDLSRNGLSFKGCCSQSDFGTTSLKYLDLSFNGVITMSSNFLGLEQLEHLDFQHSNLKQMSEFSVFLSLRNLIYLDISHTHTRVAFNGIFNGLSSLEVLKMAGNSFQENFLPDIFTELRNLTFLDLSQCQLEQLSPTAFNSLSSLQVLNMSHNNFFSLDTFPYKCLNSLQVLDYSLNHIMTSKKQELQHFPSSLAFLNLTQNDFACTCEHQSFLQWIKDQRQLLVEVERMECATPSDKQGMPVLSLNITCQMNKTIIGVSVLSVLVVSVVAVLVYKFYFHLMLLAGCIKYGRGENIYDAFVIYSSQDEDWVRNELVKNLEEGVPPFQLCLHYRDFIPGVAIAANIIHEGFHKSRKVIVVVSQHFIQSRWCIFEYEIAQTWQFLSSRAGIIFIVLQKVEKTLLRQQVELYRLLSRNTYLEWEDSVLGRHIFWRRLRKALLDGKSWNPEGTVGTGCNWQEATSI
T1 sequence (Q9Y6Y9 17-160 limits assumed): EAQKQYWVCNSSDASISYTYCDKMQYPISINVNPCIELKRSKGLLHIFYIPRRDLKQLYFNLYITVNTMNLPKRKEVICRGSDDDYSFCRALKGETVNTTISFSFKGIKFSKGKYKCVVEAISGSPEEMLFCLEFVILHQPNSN
Procedure: as §4, §1, §2
While sufficient CM3 protein was secreted into the media, 0.19 ATI had to be isolated from the detergent-soluble fraction. Briefly, HEK-cells expressing 0.19 were washed with ice cold-PBS, resuspended in 50 ml of buffer C for 15 min on ice, and centrifuged at 14,000 rpm for 20 min at 4° C. Thus, the solubilized 0.19 and soluble CM3 were bound to Flag-M2 agarose (Sigma-Aldrich) pre-equilibrated with buffer C by gentle shaking for 3 h at 4° C., washed three times with buffer C, and further washed three times with buffer D (Buffer C without detergents). Bound ATIs were eluted with TBS [pH 7.4] containing Flag peptide (Sigma-Aldrich). In order to rigorously exclude endotoxin, eluted CM3 and 0.19 were also applied to an entotoxin removal column (Norgen Biotek corp., Thorold, ON, Canada). ATIs were the used at 5 μg/ml to stimulate HEK-293 cells stably transfected with the TLR4-CD14-MD2 complex, and IL-8 secretion was quantified after 24 h using the IL-8 ELISA as described above.

[3] = system: peritoneal macrophages of C3H/HeJ mice that lack TLR4 responses; experiment: Cytokine secretion by peritoneal macrophages of TLR4 deficient C3H/HeJ versus C3H/HeOuJ mice; format: cell-based, mouse; settings: TLR4 deficient C3H/HeJ compared to syngenic C3H/HeOuJ TLR4 competent mice
Procedure: Since MyD88 transmits signals from several TLRs, we studied peritoneal macrophages of C3H/HeJ mice that lack TLR4 responses due to a spontaneous point mutation in the TLR4 gene.
Murine resident peritoneal macrophages were isolated by peritoneal lavage using a 3 ml syringe and 18 G needles. Three 3 ml of sterile PBS was injected into the peritoneal cavity and reaspirated after gentle massage of the abdomen. For further purification MACS separation for CD11b positive cells was done according to the manufacturer's protocol (Miltenyi).
as §1
C3H/HeJ, C3H/HeOuJ and Rag1−/− mice were obtained from The Jackson Laboratory (Bar Harbour, ME). The MyD88−/− mice were a kind gift from S. Akira, (Osaka University, Osaka, Japan). Congenic C57BL/6J mice served as experimental controls and were bred under the same conditions in the same facility. All experiments were done with mice at age 5-7 weeks.
as §2

TLR4-pathway = experiment: Downstream signaling by CM3 and 0.19 overexpression in TLR4-CD14-MD2 expressing HEK-293 cells (Western blot); format: cell-based; settings: overexpression in TLR4/MD2/CD14 expressing HEK-293 cells
Procedure: FIG. 9D is a western blot showing expression of CM3 and 0.19 in TLR4-CD14-MD2 expressing HEK-293 cells (HEK-TLR4) induces downstream signaling of the canonical (p-NF-κB/p65) and the alternative (p-IRF3) pathways. Western blots of whole cell lysates (50 μg protein).
HEK-293 cells stably expressing TLR4-CD14-MD2 were induced to express CM3 or 0.19, respectively, followed by cell lysis in buffer C. Lysates were cleared by centrifugation at 14,000 rpm for 20 min at 4° C., and 50 μg of protein run on a 15% SDS-gel and subjected to Western blotting to analyze activation of the canonical and the alternative (p-IRF3) pathways using antibodies to phosphorylated and unphosphorylated (p-NF-κB/p65) and IRF3 (all from Cell Signaling Technology, Danvers, MA).

[4] = system: human monocyte-derived dendritic cells (DC); experiment: Cytokine secretion by human monocyte-derived dendritic cells (ELISA); format: cell-based
Procedure: For isolation of peripheral monocytes 40 ml blood was obtained from 11 patients with celiac disease during their diagnostic workup (median 37 years, range 18-59 years), after prior informed consent Eight patients were on gluten free diet and in clinical remission, three patients were newly diagnosed and therefore on a regular gluten containing diet Control monocytes were from the buffy coat of leukopheresis concentrates of anonymous blood donors. Whole EDTA blood or leukapheresis concentrates were subjected to density gradient centrifugation over Ficoll-Hypaque (GE Healthcare, Pittsburgh, PA) and CD14-positive monocytes purified by MACS separation according to the manufacturer's protocol (Miltenyi, Bergisch Gladbach, Germany). For generation of dendritic cells, monocytes were cultured in RPMI supplemented with 10% fetal calf serum, 200 U/ml rhIL-4 and 300 U/ml rhGM-CSF (both from PeproTech, Rocky Hill, NJ) for 6-8 days.
For stimulation cells were seeded on polystyrene wells at a density of 1×10^6/ml. […]
as §2

LGQQQPFPPQQPY [p31-43, Peptide p31-43 of α-gliadin]
IL-15 secretion (celiac biopsies): increases IL-15 secretion
IL-8 secretion [1]: did not elicit secretion
MCP-1 secretion [1]: did not elicit secretion
TNF-α secretion [1]: did not elicit secretion
IL-8 secretion (THP-1; even at 40 μg/ml): did not elicit secretion
MCP-1 secretion (THP-1; even at 40 μg/ml): did not elicit secretion
TNF-α secretion (THP-1; even at 40 μg/ml): did not elicit secretion
IL-8 secretion (U937): did not elicit secretion
MCP-1 secretion (U937): did not elicit secretion
TNF-α secretion (U937): did not elicit secretion

N-Palmitoyl-S-[2,3-bis(palmitoyloxy)-(2RS)-propyl]-[R]-cysteinyl-[S]-seryl-[S]-lysyl-[S]-lysyl-[S]-lysyl-[S]-lysine x3 HCl [Pam3CSK4]
IL-8 secretion [2]: absence of IL-8 induction
KC (IL-8) secretion [3]: equally high amounts
TNF-α secretion [3]: equally high amounts

TNF-α
IL-8 induction after proteinase K digestion of the stimulant (THP-1; 20 μg/ml proteinase K, 4 hrs at 56° C., FIG. 1F): lost its stimulatory capacity

B1: CM3: recombinant flag-tagged wheat alpha amylase inhibitor CM3 (SEQ ID NO: 1) expressed in HEK-293 cells (protein)
chain: MACKSSCSLLLLAAVLLSVLAAASASGSCVPGVAFRTNLLPHCRDYVLQQTCGTFTPGSLPEWMTSASIYSPGKPYLAKLYCCQELAEISQQCRCEALRYFIALPVPSQPVDPRSGNVGESGLIDLPGCPREMQWDFVRLLVAPGQCNLATIHNVRYCPAVEQPLWIDYKDDDDK
modifications: FLAG tag
alternative TLR4-pathway (p-IRF3) (TLR4-pathway): strongly induced
canonical TLR4-pathway (p-NF-κB/p65) (TLR4-pathway): strongly induced
stimulatory activity after additional purification using an endotoxin depletion column [2]: maintained
IL-8 secretion [2]: stimulated
IL-8 secretion [4]: upregulated IL-8 secretion

B2: 0.19: recombinant flag-tagged wheat alpha amylase inhibitor 0.19 (SEQ ID NO: 2) expressed in HEK-293 cells (protein, listed as Triticum aestivum)
chain: SGPWMCYPGQAFQVPALPACRPLLRLQCNGSQVPEAVLRDCCQQLAHISEWCRCGALYSMLDSMYKEHGAQEGQAGTGAFPRCRREVVKLTAASITAVCRLPIVVDASGDGAYVCKDVAAYPD
modifications: FLAG tag
alternative TLR4-pathway (p-IRF3) (TLR4-pathway): strongly induced
canonical TLR4-pathway (p-NF-κB/p65) (TLR4-pathway): strongly induced
stimulatory activity after additional purification using an endotoxin depletion column [2]: maintained
IL-8 secretion [2]: stimulated
